Experimental data reported in US12091411B2, “IRAK degraders and uses thereof” (Kymera Therapeutics, Inc., priority 2022, dated 2024).
Read-outs that look alike come from different tables or passages of the source.

Biological target: T1, IRAK4 (Homo sapiens, UniProt Q9NWZ3)
T1 construct: Degradation of IRAK4 in OCI-LY10 was quantitatively measured using Meso Scale Discovery technology; endogenous in cells; host or cells: OCI-LY10
T1 sequence (Q9NWZ3 1-460): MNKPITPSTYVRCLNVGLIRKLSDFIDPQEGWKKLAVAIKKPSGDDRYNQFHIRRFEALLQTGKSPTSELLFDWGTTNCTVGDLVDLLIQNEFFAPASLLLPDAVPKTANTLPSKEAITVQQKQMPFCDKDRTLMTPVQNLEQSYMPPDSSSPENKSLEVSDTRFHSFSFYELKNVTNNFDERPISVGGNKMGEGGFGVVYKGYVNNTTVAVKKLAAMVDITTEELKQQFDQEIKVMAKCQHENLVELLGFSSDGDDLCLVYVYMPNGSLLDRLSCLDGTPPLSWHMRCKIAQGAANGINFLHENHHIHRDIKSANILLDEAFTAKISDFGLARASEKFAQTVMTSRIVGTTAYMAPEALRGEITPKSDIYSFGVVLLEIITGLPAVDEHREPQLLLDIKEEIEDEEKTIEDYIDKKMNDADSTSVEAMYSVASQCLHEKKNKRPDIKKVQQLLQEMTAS
Test: IRAK4 MSD Degradation in OCI-LY10
Assay type: cell-based
Details: OCI-LY10 cells, MSD
In short: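 DC50, from a three-parameter logistic fit and reported as letter bins A (<0.01 μM), B, C, D (>0.2 μM or not tested), reflects IRAK4 loss measured by MSD electrochemiluminescence in OCI-LY10 lysates. Treatment: 8 doses, 1:3 steps, top 1 to 10 μM, 4 to 24 h, 37 °C.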

[1] = 4 hrs incubation, read-out: IRAK4 degradation in OCI-LY10 at 4 hrs: DC50
[2] = 24 hrs incubation, read-out: IRAK4 degradation in OCI-LY10 at 24 hrs: DC50

| Structure (SMILES) | DC50 [1] [nM] | DC50 [2] [nM] |
| --- | --- | --- |
| Cn1c(=O)n(C2CCC(=O)NC2=O)c2cccc(N3CC(COC4CN(C[C@H]5CC[C@H](n6cc(NC(=O)c7cnn8ccc(N9C[C@H]%10C[C@@H]9CO%10)nc78)c(C(F)F)n6)CC5)C4)C3)c21 (stereo partly shown) [I-599] | > 200 | < 10 |
| O=C1CCN(c2ccc(C#CCOC3CCN(C[C@H]4CC[C@H](n5cc(NC(=O)c6cnn7ccc(N8C[C@H]9C[C@@H]8CO9)nc67)c(C(F)F)n5)CC4)CC3)cc2)C(=O)N1 [I-218] | 100 to 200 | > 200 |
| Cc1cccc(C(=O)Nc2cc3cn([C@H]4CC[C@H](CN5CCN(c6cccc7c6n(C)c(=O)n7C6CCC(=O)NC6=O)CC5)CC4)nc3cn2)n1 (stereo partly shown) [I-692] | > 200 | < 10 |
| Cc1cccc(C(=O)Nc2cc3cn([C@H]4CC[C@H](CN5CC[C@@H](c6cccc7c6n(C)c(=O)n7C6CCC(=O)NC6=O)[C@H](F)C5)CC4)nc3cn2)n1 (stereo partly shown) [I-633] | > 200 | < 10 |
| COc1cc2nn([C@H]3CC[C@H](CN4CCC5(CC4)CCN(c4ccc(Cl)c(N6CCC(=O)NC6=O)c4)CC5)CC3)cc2cc1NC(=O)c1cncc(C#N)c1 [I-254] | > 200 | > 200 |
| Cn1c(NC(=O)c2cccc(C(F)(F)F)n2)cc2cn([C@H]3CC[C@H](CN4CC[C@@H](c5cccc6c5n(C)c(=O)n6C5CCC(=O)NC5=O)[C@H](F)C4)CC3)nc2c1=O (stereo partly shown) [I-776] | > 200 | > 200 |
| Cn1c(=O)n(C2CCC(=O)NC2=O)c2cccc(C#CC[C@H]3CN(Cc4ccc(-n5cc(NC(=O)c6cnn7ccc(N8C[C@H]9C[C@@H]8CO9)nc67)c(C(F)F)n5)cc4)CCO3)c21 (stereo partly shown) [I-380] | > 200 | > 200 |
| Cn1c(=O)n(C2CCC(=O)NC2=O)c2cccc(C#CCN3CCN(C[C@H]4CC[C@H](n5cc(NC(=O)c6cnn7ccc(N8CC9(COC9)C8)nc67)c(C(F)F)n5)CC4)CC3)c21 (stereo partly shown) [I-315] | > 200 | < 10 |
| CN(C[C@H]1CC[C@H](n2cc(NC(=O)c3cnn4ccc(N5CCOCC5)nc34)c(C(F)F)n2)CC1)C1CCN(c2cccc3c2n(C)c(=O)n3C2CCC(=O)NC2=O)CC1(F)F (stereo partly shown) [I-522] | > 200 | 10 to 100 |
| Cn1c(=O)n(C2CCC(=O)NC2=O)c2cccc(C#CCN3CCC(C[C@H]4CC[C@H](n5cc6cc(NC(=O)c7cccc(C(F)(F)F)n7)ncc6n5)CC4)CC3)c21 (stereo partly shown) [I-759] | > 200 | > 200 |
| Cn1c(=O)n(C2CCC(=O)NC2=O)c2cccc(C3CCN(C[C@H]4CC[C@H](n5cc6cc(NC(=O)c7cccc(C(F)(F)F)n7)c(F)cc6n5)CC4)CC3F)c21 (stereo partly shown) [I-554] | > 200 | 10 to 100 |
| CN(C[C@H]1CC[C@H](n2cc(NC(=O)c3cnn4ccc(N5CCCC(C)(C)C5)nc34)c(C(F)F)n2)CC1)C1CCN(c2cccc3c2n(C)c(=O)n3C2CCC(=O)NC2=O)CC1(F)F (stereo partly shown) [I-517] | > 200 | > 200 |
| Cn1c(=O)n(C2CCC(=O)NC2=O)c2ccc(F)c(C3CN(C4CCN([C@H]5CC[C@H](n6cc(NC(=O)c7cnn8ccc(N9C[C@H]%10C[C@@H]9CO%10)nc78)c(C(F)F)n6)CC5)CC4(F)F)C3)c21 (stereo partly shown) [I-753] | > 200 | > 200 |
| Cn1c(=O)n(C2CCC(=O)NC2=O)c2cccc(C#CCN3CCN([C@H]4CC[C@@H](n5cc(NC(=O)c6cnn7ccc(N8C[C@H]9C[C@@H]8CO9)nc67)c(C(F)F)n5)CC4)CC3)c21 (stereo partly shown) [I-421] | 10 to 100 | > 200 |
| Cn1c(=O)n(C2CCC(=O)NC2=O)c2cccc(N3CCN(C4CCN(C[C@H]5CC[C@H](n6cc(NC(=O)c7cnn8ccc(N9CC%10(COC%10)C9)nc78)c(C(F)F)n6)CC5)CC4(F)F)CC3)c21 (stereo partly shown) [I-735] | > 200 | < 10 |
| COc1ccc2c(c1C#CCO[C@H]1CCN(C[C@H]3CC[C@H](n4cc(NC(=O)c5cnn6ccc(N7C[C@H]8C[C@@H]7CO8)nc56)c(C(F)F)n4)CC3)C[C@H]1F)n(C)c(=O)n2C1CCC(=O)NC1=O (stereo partly shown) [I-51] | 10 to 100 | > 200 |
| Cn1c(=O)n(C2CCC(=O)NC2=O)c2cccc(O[C@H]3C[C@H](N4CCN(C[C@H]5CC[C@H](n6cc(NC(=O)c7cnn8ccc(N9C[C@H]%10CC9CO%10)nc78)c(C(F)F)n6)CC5)CC4)C3)c21 (stereo partly shown) [I-577] | > 200 | > 200 |
| C[C@H]1CN(CCCc2cccc3c2n(C)c(=O)n3C2CCC(=O)NC2=O)CCN1C[C@H]1CC[C@H](n2cc(NC(=O)c3cnn4ccc(N5C[C@H]6C[C@@H]5CO6)nc34)c(C(F)F)n2)CC1 (stereo partly shown) [I-120] | > 200 | > 200 |

Continued, values first:

| DC50 [1] [nM] | DC50 [2] [nM] | Structure (SMILES) |
| --- | --- | --- |
| 10 to 100 | > 200 | Cn1c(=O)n(C2CCC(=O)NC2=O)c2cccc(C#CCN3CCN(C[C@H]4CC[C@H](n5cc(NC(=O)c6cnn7ccc(N8CC9(CCCOC9)C8)nc67)c(C(F)F)n5)CC4)CC3)c21 (stereo partly shown) [I-318] |
| > 200 | > 200 | CN(C[C@H]1CC[C@H](n2cc(NC(=O)c3cnn4ccc(N5CC(O)C5)nc34)c(C(F)F)n2)CC1)C1CCN(c2cccc3c2n(C)c(=O)n3C2CCC(=O)NC2=O)CC1(F)F (stereo partly shown) [I-508] |
| < 10 | > 200 | Cn1c(=O)n(C2CCC(=O)NC2=O)c2cccc(CC[C@H]3CN(C[C@H]4CC[C@H](n5cc(NC(=O)c6cnn7ccc(N8C[C@H]9C[C@@H]8CO9)nc67)c(C(F)F)n5)CC4)CCO3)c21 (stereo partly shown) [I-385] |
| > 200 | > 200 | COc1cc2nn([C@H]3CC[C@H](CN4CCC5(CC4)CCN(c4cccc6c4n(C)c(=O)n6C4CCC(=O)NC4=O)CC5)CC3)cc2cc1NC(=O)c1cncc(S(=O)(=O)C(F)(F)F)c1 (stereo partly shown) [I-154] |
| > 200 | > 200 | Cn1c(=O)n(C2CCC(=O)NC2=O)c2cccc(C3CCN(C[C@H]4CC[C@H](n5cc6cc(NC(=O)c7cccc(C(F)(F)F)n7)ccc6n5)CC4)CC3(F)F)c21 (stereo partly shown) [I-489] |
| > 200 | < 10 | Cn1c(=O)n(C2CCC(=O)NC2=O)c2cccc(N3CCN(C[C@H]4CC[C@H](n5cc6cc(NC(=O)c7cccc(C#N)n7)ccc6n5)CC4)CC3)c21 (stereo partly shown) [I-685] |
| < 10 | > 200 | O=C1CCC(n2c(=O)n(C3CC3)c3c(C#CCN4CCN(C[C@H]5CC[C@H](n6cc(NC(=O)c7cnn8ccc(N9C[C@H]%10C[C@@H]9CO%10)nc78)c(C(F)F)n6)CC5)CC4)cccc32)C(=O)N1 (stereo partly shown) [I-4] |
| > 200 | 10 to 100 | CN(C[C@H]1CC[C@H](n2cc(NC(=O)c3cnn4ccc(N5CCCC5)nc34)c(C(F)F)n2)CC1)C1CCN(c2cccc3c2n(C)c(=O)n3C2CCC(=O)NC2=O)CC1(F)F (stereo partly shown) [I-512] |
| > 200 | > 200 | Cn1c(=O)n(C2CCC(=O)NC2=O)c2cccc(N3CC(F)(CN(C)[C@H]4CC[C@H](n5cc6cc(NC(=O)c7cccc(C(F)(F)F)n7)ncc6n5)CC4)C3)c21 (stereo partly shown) [I-789] |
| > 200 | > 200 | Cc1ccc(-c2nn([C@H]3CC[C@H](CN4CCC(OCC#Cc5cccc6c5n(C)c(=O)n6C5CCC(=O)NC5=O)CC4)CC3)cc2NC(=O)c2cncc(C#N)c2)nc1 (stereo partly shown) [I-268] |
| > 200 | 10 to 100 | Cn1c(=O)n(C2CCC(=O)NC2=O)c2cccc(C#CCN3CCN(C[C@H]4CC[C@H](n5cc(NC(=O)c6cnn7ccc(N8CCCC89CC9)nc67)c(C(F)F)n5)CC4)CC3)c21 (stereo partly shown) [I-222] |
| < 10 | > 200 | CN(C)c1ccn2ncc(C(=O)Nc3cn([C@H]4CC[C@H](CN5CCN(CC#Cc6cccc7c6n(C)c(=O)n7C6CCC(=O)NC6=O)CC5)CC4)nc3C(F)F)c2n1 (stereo partly shown) [I-101] |
| < 10 | > 200 | Cn1c(=O)n(C2CCC(=O)NC2=O)c2cccc(N3CCC(OC4CCN(C[C@H]5CC[C@H](n6cc(NC(=O)c7cnn8ccc(N9C[C@H]%10C[C@@H]9CO%10)nc78)c(C(F)F)n6)CC5)CC4)CC3)c21 (stereo partly shown) [I-165] |
| 10 to 100 | > 200 | Cn1c(=O)n(C2CCC(=O)NC2=O)c2cccc(C#CC3CCCN(C[C@H]4CC[C@H](n5cc(NC(=O)c6cnn7ccc(N8C[C@H]9C[C@@H]8CO9)nc67)c(C(F)F)n5)CC4)C3)c21 (stereo partly shown) [I-17] |
| > 200 | > 200 | Cn1c(=O)n(C2CCC(=O)NC2=O)c2cccc(N3CCN(C(=O)C[C@]4(O)CC[C@@H](n5cc6cc(NC(=O)c7cccc(C(F)(F)F)n7)ncc6n5)CC4)CC3)c21 (stereo partly shown) [I-764] |
| > 200 | > 200 | Cn1c(=O)n(C2CCC(=O)NC2=O)c2cccc(C3CCN(C[C@H]4CC[C@H](n5cc6cc(NC(=O)c7cccc(C(F)(F)F)n7)c(C#N)cc6n5)CC4)CC3(F)F)c21 (stereo partly shown) [I-490] |
| > 200 | > 200 | Cc1ccc(-c2nn([C@H]3CC[C@H](CN4CCN(CC#Cc5cccc6c5n(C)c(=O)n6C5CCC(=O)NC5=O)CC4)CC3)cc2NC(=O)c2cncc(C#N)c2)nc1 (stereo partly shown) [I-269] |
| > 200 | 10 to 100 | COc1ccc(C(F)(F)F)nc1C(=O)Nc1cc2cn([C@H]3CC[C@@H](CN4CCC5(CC4)CC(CNc4cccc6c4C(=O)N(C4CCC(=O)NC4=O)C6=O)C5)CC3)nc2cc1C(C)(C)O (stereo partly shown) [I-137] |
| > 200 | > 200 | Cn1c(=O)n(C2CCC(=O)NC2=O)c2cccc([C@H]3CCN(C[C@H]4CC[C@H](n5cc6cc(NC(=O)c7cccc(C(F)F)n7)ccc6n5)CC4)C[C@@H]3F)c21 (stereo partly shown) [I-630] |
| > 200 | > 200 | Cn1c(=O)n(C2CCC(=O)NC2=O)c2cccc(C#CCOC3CCN(C[C@H]4CC[C@H](n5cc(NC(=O)c6cccc7ccc(N8CCC8)nc67)c(C(F)F)n5)CC4)CC3)c21 (stereo partly shown) [I-336] |
